# According to US7223835B2, “VEGF peptides and their use for inhibiting angiogenesis” (Ark Therapeutics Ltd., priority 2000, dated 2007):
# Test system: human endothelial cell-derived tubule formation
# Assay: In vitro angiogenesis assay, endothelial cell-derived tubule formation in co-culture with human fibroblasts
# Type: cell-based
# Details: tubule formation at day 11, CD31 immunostaining, with and without VEGF; FIG. 4
# Protocol: An in vitro angiogenesis assay based on human endothelial cell-derived tubule formation (TCS Biologicals) in a co-culture with human fibroblasts was used to investigate the effects of selected peptides on angiogenesis. The peptides, together with VEGF and other factors were added at the start of the experiment and at each medium change at days 4, 7 and 9. At day 11, the cultures were fixed with 70% ethanol for 30 min at room temperature and subsequently subjected to immunostaining for the endothelial cell adhesion molecule CD31. Fixed cells were incubated with the primary antibody (mouse anti-human CD31) for 1 h at 37° C., washed 3 times in blocking buffer (PBS containing 1% BSA), and then incubated with the secondary antibody (goat anti-mouse IgG conjugated to alkaline phosphatase) for 1 h at 37° C. After 3 washes in distilled water, the cells were finally incubated with the substrate solution for 10 min at 37° C. Immunostaining was observed and photographed using an inverted Zeiss microscope (Axiovert CFL25) fitted with a ×4 objective lens. […] A, VEGF released from untreated control during 11 days, measured by specific immunoassay; B, untreated control; C, VEGF; D, peptide 121–132; E, VEGF in the presence of peptide 121–132; F, peptide 125–136; and G, VEGF in the presence of peptide 125–136.
substance,measurement,value
"RKRKKSR [SEQ ID NO:21, 7-mer truncated derivative of the 12-mer V125–136 protein]","inhibition of angiogenesis (Chalkley count), potency compared with the 12-mer",inhibits angiogenesis with similar potency to the 12-mer
